“And” between values parts separate entries of the source, which are not always exact repeats. Equal values may be shown once.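 Method: 48-hour compound exposure of cells in 96-well plates, five concentrations, linear interpolation of endpoints. Abbreviation: GI50, concentration required for 50% inhibition of growth. TGI is the concentration that stops growth completely.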
Experiments:
Test in all cases: NCI tumour cell line growth inhibition, 48 h
[1] = tested on: IGROV1 ovarian
[2] = tested on: HT29 colon
[3] = tested on: DMS 114 small cell lung
[4] = tested on: MALME-3M melanoma
[5] = tested on: HL-60(TB) leukemia
[6] = tested on: SW-620 colon
[7] = tested on: SF-268 CNS
[8] = tested on: TK-10 renal
[9] = tested on: HOP-92 NSCLC
[10] = tested on: SK-MEL-28 melanoma
[11] = tested on: CCRF-CEM leukemia
[12] = tested on: DMS 273 small cell lung
[13] = tested on: NCI-H460 lung
[14] = tested on: KM12 colon
[15] = tested on: M19-MEL melanoma
[16] = tested on: EKVX NSCLC
[17] = tested on: SK-OV-3 ovarian
[18] = tested on: COLO 205 colon
[19] = tested on: RXF-631 renal
[20] = tested on: K-562 leukemia
[21] = tested on: OVCAR-5 ovarian
[22] = tested on: HOP-18 NSCLC
[23] = tested on: NCI-H23 lung
[24] = tested on: UACC-62 melanoma
[25] = tested on: NCI-H226 lung
[26] = tested on: HCT-15 colon
[27] = tested on: SN12C renal
[28] = tested on: SK-MEL-2 melanoma
[29] = tested on: A498 renal
[30] = tested on: DLD-1 colon
[31] = tested on: OVCAR-3 ovarian
[32] = tested on: ACHN renal
[33] = tested on: UO-31 renal
[34] = tested on: XF 498 CNS
[35] = tested on: HCC-2998 colon
[36] = tested on: CAKI-1 renal
[37] = tested on: LXFL 529 NSCLC
[38] = tested on: M14 melanoma
[39] = tested on: 786-0 renal
[40] = tested on: OVCAR-4 ovarian
[41] = tested on: HOP-62 NSCLC
[42] = tested on: SF-539 CNS
[43] = tested on: SNB-78 CNS
[44] = tested on: SF-295 CNS
[45] = tested on: RPMI-8226 leukemia
[46] = tested on: MOLT-4 leukemia
[47] = tested on: SNB-75 CNS
[48] = tested on: OVCAR-8 ovarian
[49] = tested on: A549 NSCLC
[50] = tested on: U251 CNS
[51] = tested on: MDA-MB-435
[52] = tested on: SNB-19 CNS
[53] = tested on: P388/ADR leukemia
[54] = tested on: UACC-257 melanoma
[55] = tested on: RXF 393 renal
[56] = tested on: P388 leukemia
[57] = tested on: HCT-116 colon
[58] = tested on: KM20L2 colon
[59] = tested on: SR leukemia
[60] = tested on: SN12K1 renal
[61] = tested on: BT-549 breast
[62] = tested on: NCI-H522 lung
[63] = tested on: MDA-N
[64] = tested on: SK-MEL-5 melanoma
[65] = tested on: DU-145 prostate
[66] = tested on: LOX IMVI melanoma

Compound O=C1c2ccccc2C(=O)c2c(O)c(NCCCNCCO)cc(O)c21 has a TGI [1] of 28.8 µM, a TGI [2] of 18.7 µM and a TGI [3] of 26.2 µM. The TGI [4] was 31.2 µM, the TGI [5] was 19.7 µM and the TGI [6] was 18.4 µM. The TGI [7] was 23.1 µM, the TGI [8] was 22.1 µM and the TGI [9] was 31.7 µM. The TGI [10] was 30.4 µM, the TGI [11] was 15.5 µM and the TGI [12] was 22.7 µM. It also gave a TGI [13] of 17.8 µM, a TGI [14] of 21 µM and a TGI [15] of 27.4 µM. The TGI [16] was 28.3 µM, the TGI [17] was 26.1 µM and the TGI [18] was 20.8 µM. It also gave a TGI [19] of 25 µM, a TGI [20] of 3.5 µM and a TGI [21] of 24.6 µM. For the same compound, the TGI [22] was 17.5 µM, the TGI [23] was 24.6 µM and the TGI [24] was 36.5 µM. For the same compound, the TGI [25] was 22 µM, the TGI [26] was 24.6 µM and the TGI [27] was 25.8 µM. It also gave a TGI [28] of 33 µM, a TGI [29] of 33.1 µM and a TGI [30] of 19.8 µM. It also gave a TGI [31] of 26.6 µM, a TGI [32] of 15.9 µM and a TGI [33] of 19.5 µM. It also gave a TGI [34] of 32.7 µM, a TGI [35] of 17 µM and a TGI [36] of 22.4 µM. It also gave a TGI [37] of 29.8 µM, a TGI [38] of 36.6 µM and a TGI [39] of 23 µM. The TGI [40] was 36.4 µM, the TGI [41] was 15.4 µM and the TGI [42] was 22.2 µM. It also gave a TGI [43] of 39.8 µM, a TGI [44] of 23.1 µM and a TGI [45] of 25.5 µM. It also gave a TGI [46] of 14 µM, a TGI [47] of 26.8 µM and a TGI [48] of 23.7 µM. The TGI [49] was 23.7 µM and the TGI [50] was 21.1 µM.

COc1cc(NS(C)(=O)=O)ccc1Nc1c2ccccc2nc2ccccc12 was tested, and the GI50 [1] was 1.59 µM and 1.44 µM and 0.826 µM, the GI50 [2] was 1.37 µM and 0.888 µM and 0.991 µM and the GI50 [3] was 0.114 µM and 0.0981 µM. The TGI [3] was 6.54 µM and 1.52 µM and 4.56 µM, the GI50 [4] was 1.27 µM and 0.511 µM and 0.515 µM and the GI50 [51] was 3.04 µM and 11 µM and 7.26 µM. The GI50 [5] was 0.298 µM and 0.18 µM and < 0.0379 µM, the GI50 [6] was 1.49 µM and 0.242 µM and 0.351 µM and the GI50 [52] was 0.528 µM and 0.464 µM and 0.495 µM. For the same compound, the GI50 [7] was 1.14 µM and 0.483 µM and 0.511 µM, the GI50 [8] was 4.72 µM and 0.854 µM and 0.911 µM and the GI50 [9] was 2.59 µM and 0.604 µM. For the same compound, the TGI [53] was 5.51 µM, the GI50 [54] was 11.8 µM and 5.93 µM and the GI50 [11] was 0.0918 µM and 0.182 µM and 0.105 µM. For the same compound, the GI50 [12] was 0.0535 µM and 0.128 µM, the TGI [12] was 2.72 µM and 12 µM and 2.02 µM and the GI50 [13] was 0.0587 µM and 0.0338 µM and 0.0425 µM. For the same compound, the GI50 [14] was 1.71 µM and 1.68 µM, the TGI [14] was 11.4 µM [middle of 8 runs] and the GI50 [15] was 1.54 µM and 5.95 µM. The TGI [15] was 17.6 µM and 30.8 µM and 8.44 µM, the GI50 [16] was 4.77 µM and 3.01 µM and 2.84 µM and the GI50 [17] was 0.557 µM and 0.239 µM and 0.288 µM. The GI50 [18] was 0.715 µM and 1.11 µM, the GI50 [19] was 0.388 µM and 0.431 µM and the TGI [19] was 4.3 µM and 2.93 µM and 5.34 µM. The GI50 [20] was 1.94 µM and 1.87 µM and 0.624 µM, the GI50 [55] was 3.37 µM and 2.18 µM and 2.23 µM and the TGI [56] was 0.391 µM. For the same compound, the GI50 [21] was 8.1 µM and 5.64 µM and 6.81 µM, the GI50 [22] was 0.878 µM and the TGI [22] was 5.23 µM and 3.51 µM. The GI50 [23] was 0.55 µM and 0.377 µM and 0.368 µM, the GI50 [24] was 0.491 µM and 0.951 µM and 0.705 µM and the GI50 [25] was 0.256 µM and 0.26 µM and 0.22 µM. The GI50 [26] was 1.7 µM and 1.38 µM and 1.45 µM, the GI50 [27] was 0.432 µM and 0.273 µM and 0.307 µM and the GI50 [28] was 18 µM and 4.55 µM and 5.73 µM. The GI50 [57] was 0.82 µM and 0.368 µM and 0.424 µM, the GI50 [58] was 2.18 µM and 3.41 µM and the TGI [58] was 12.1 µM and 15.3 µM and 5.78 µM. For the same compound, the GI50 [59] was 0.0475 µM and 0.0245 µM, the GI50 [29] was 1.61 µM and 0.237 µM and 0.405 µM and the GI50 [30] was 3.58 µM and 15.3 µM. For the same compound, the TGI [30] was 16.2 µM and 35.1 µM and 7.54 µM, the GI50 [31] was 4 µM and the TGI [31] was 7.66 µM [middle of 8 runs]. For the same compound, the GI50 [32] was 0.311 µM and 0.194 µM and 0.183 µM, the GI50 [33] was 1.39 µM and 0.288 µM and 0.231 µM and the TGI [60] was 4.04 µM. For the same compound, the GI50 [35] was 2.4 µM and 2.19 µM and 2.34 µM, the GI50 [36] was 0.55 µM and 0.213 µM and 0.308 µM and the GI50 [37] was 5.37 µM and 5.42 µM. For the same compound, the TGI [37] was 17.9 µM and 22.7 µM and 8.92 µM, the GI50 [61] was 3.14 µM [middle of 4 runs] and the GI50 [38] was 0.526 µM and 0.397 µM and 0.447 µM. The GI50 [62] was 3.27 µM and 0.552 µM, the GI50 [63] was 4 µM and the TGI [63] was 7.41 µM and 16.6 µM and 11.5 µM. For the same compound, the GI50 [39] was 0.458 µM and 0.279 µM and 0.27 µM, the TGI [39] was 1.77 µM [middle of 8 runs] and the GI50 [40] was 12.6 µM and 5.08 µM. The GI50 [41] was 0.551 µM and 0.221 µM and 0.198 µM, the GI50 [64] was 0.618 µM and 0.282 µM and the GI50 [42] was 0.531 µM and 0.36 µM and 0.41 µM. The TGI [42] was 2.27 µM [middle of 7 runs], the TGI [65] was 2.59 µM [middle of 5 runs] and the GI50 [43] was 5.79 µM and 10.6 µM. For the same compound, the TGI [43] was 17.7 µM and 36.5 µM and 14.4 µM, the GI50 [44] was 0.405 µM and 0.166 µM and 0.136 µM and the GI50 [45] was 4.07 µM and 2 µM. For the same compound, the GI50 [46] was 0.181 µM and 0.0453 µM and < 0.025 µM, the GI50 [47] was 0.221 µM and 0.335 µM and 0.341 µM and the GI50 [48] was 1.33 µM and 0.904 µM and 1.03 µM. The GI50 [49] was 0.198 µM and 0.0635 µM and 0.0637 µM, the GI50 [50] was 0.528 µM and 0.35 µM and 0.358 µM and the GI50 [66] was 0.351 µM and 0.306 µM and 0.31 µM.

For O=[N+]([O-])c1ccccc1S(=O)(=O)c1ccccc1, the TGI [1] was greater than 100 µM, the TGI [2] was greater than 100 µM and the TGI [3] was greater than 100 µM. It also gave a TGI [4] greater than 100 µM, a TGI [5] greater than 100 µM and a TGI [6] greater than 100 µM. For the same compound, the TGI [7] was greater than 100 µM, the TGI [8] was greater than 100 µM and the TGI [9] was greater than 100 µM. It also gave a TGI [10] greater than 100 µM, a TGI [54] greater than 100 µM and a TGI [11] greater than 100 µM. For the same compound, the TGI [12] was greater than 100 µM, the TGI [13] was greater than 100 µM and the TGI [14] was greater than 100 µM. For the same compound, the TGI [15] was greater than 100 µM, the TGI [16] was greater than 100 µM and the TGI [17] was greater than 100 µM. The TGI [18] was greater than 100 µM, the TGI [19] was 47 µM and the TGI [20] was greater than 100 µM. For the same compound, the TGI [55] was greater than 100 µM, the TGI [21] was greater than 100 µM and the TGI [22] was greater than 100 µM. It also gave a TGI [23] greater than 100 µM, a TGI [24] greater than 100 µM and a TGI [25] greater than 100 µM. It also gave a TGI [26] greater than 100 µM, a TGI [27] greater than 100 µM and a TGI [28] greater than 100 µM. It also gave a TGI [57] greater than 100 µM, a TGI [58] greater than 100 µM and a TGI [59] greater than 100 µM. It also gave a TGI [29] greater than 100 µM, a TGI [30] greater than 100 µM and a TGI [31] greater than 100 µM. For the same compound, the TGI [32] was greater than 100 µM, the TGI [33] was 90.6 µM and the TGI [34] was greater than 100 µM. The TGI [35] was greater than 100 µM, the TGI [37] was greater than 100 µM and the TGI [38] was greater than 100 µM. The TGI [40] was greater than 100 µM, the TGI [41] was greater than 100 µM and the TGI [64] was greater than 100 µM. For the same compound, the TGI [42] was greater than 100 µM, the TGI [44] was greater than 100 µM and the TGI [45] was greater than 100 µM. For the same compound, the TGI [46] was greater than 100 µM, the TGI [47] was greater than 100 µM and the TGI [48] was greater than 100 µM. The TGI [49] was greater than 100 µM, the TGI [50] was greater than 100 µM and the TGI [66] was greater than 100 µM.
